In experiment [1] the test system is GPR65 KO HeLa cells + pLX empty vector. Briefly: cAMP detection, GPR65 KO HeLa + empty pLX vector (null control). Type of experiment: cell-based, human. Particulars: HeLa GPR65 KO + pLX, pH 7.1, 30 min, normalized to DMSO and 100 μM forskolin. The method, then: (§1) The Lance Ultra cAMP Kit (PerkinElmer, TRF0264) was used for cAMP detection, and included the following reagents: ULight anti-cAMP antibody, Eu-cAMP tracer, 7.5% BSA Stabilizer solution, and cAMP detection buffer. Stimulation buffer was prepared as described by the kit manufacturer as follows: Hanks buffered saline solution (HBSS, Life Technologies, 14025-126) containing 0.5 mM IBMX (3-isobutyl-1-methylxanthine, Sigma-Aldrich, I7018) and buffered with 1 M Hepes (15630-080). Stimulation buffer was then adjusted to pH 7.1 using 12 N HCl. HeLa cells were lifted using Versene and then suspended at 2.5 × 10^5 cells/ml in stimulation buffer. Cells were then plated at 20 μl per well (5000 cells per well) in white, opaque OptiPlate 384-well MicroPlates (PerkinElmer, 6007299) using a Thermo Fisher Scientific Combi liquid dispenser. Compounds, stored at 5 mM in DMSO for the primary screen, or in a range of concentrations from 39 μM to 20 mM for dose curves, were transferred by the CyBio CyBi-Well Vario pin transfer tool with 100-nl pins (V&P FP1NS50H, 50-nl slot, 0.457-mm diameter, hydrophobic coated), into each assay well, 100 nl per well for a final assay concentration of 25 μM for the primary screen, or 195 nM to 100 μM for dose curves. Assay plates were then incubated at RT for 30 min. Eu-cAMP tracer was diluted 1:33 into detection buffer and the final solution then distributed into assay wells, 5 μl per well. ULight anti-cAMP antibody was diluted 1:100 into detection buffer, then distributed into assay wells, also 5 μl per well. Assay plates were then incubated at RT in the dark for 1 hour. Eu-cAMP tracer and Förster resonance energy transfer (FRET) emissions were then read using a PerkinElmer EnVision Multimode plate reader (ENVISION21040010), exciting each well at 320 nm [UV2 (TRF) 320 filter] and reading emissions at 615 nm (Europium 615 filter) and 665 nm (APC665 filter). Data analysis was performed using Genedata Screener and GraphPad Prism.
(§2) HeLa KO cell lines were generated using the px330 plasmid CRISPR system as previously described ([18]). Briefly, HeLa cells were transfected with a Cas9 vector containing a gene-specific single-guide RNA to target the GPR65 coding exon. Forty-eight to 72 hours after transfection, single clones were obtained through limiting dilution and then sequenced to validate the KO. Reconstituted cell lines were produced by transducing KO cells with empty lentivirus or lentivirus containing hGPR65 or mGPR65. After 48 hours, cells were treated with puromycin (3 μg/ml; InvivoGen, ant-pr-1) and resistant cells were used in experiments.

In another experiment the target is T1, hGPR65 (Homo sapiens, UniProt Q8IYL9).
T1 construct: expressed in transfected cells; host or cells: HeLa (ATCC CCL-2), lentiviral transduction, pLX317
In words: cAMP detection (Lance Ultra), GPR65 KO HeLa reconstituted with hGPR65; 21K screen dose confirmation. Type of experiment: cell-based. Particulars: HeLa GPR65 KO + hGPR65, pH 7.1, 30 min, normalized to DMSO and 100 μM forskolin; read-out: WT EC50. The method, then: as §1, §2

In another experiment the target is T2, hGPR65-SmBiT (Homo sapiens, UniProt Q8IYL9).
T2 construct: expressed in transfected cells; host or cells: Expi293F (Gibco), transient transfection
In words: Nano-BiT target engagement, LgBiT-mGs recruitment to hGPR65-SmBiT in Expi293F cells. Type of experiment: cell-based. Particulars: isoproterenol treatment. The method, then: Target engagement was measured in Expi293F (Gibco, 100044202) cells using the Nano-Glo Live Cell Assay System (Promega, N2011). Nano-BiT plasmids were cloned from GPR65-, GPR4-, and GPR68-Tango plasmids. GPR65-Tango (Addgene plasmid # 66370; http://n2t.net/addgene:66370; RRID:Addgene_66370), GPR4-Tango (Addgene plasmid # 66358; http://n2t.net/addgene:66358; RRID:Addgene_66358), and GPR68-Tango (Addgene plasmid # 66371; http://n2t.net/addgene:66371; RRID:Addgene_66371) were gifts from Bryan Roth. Expi293F cells were transfected 1 day before kinetics with 500 ng of each plasmid using ExpiFectamine 293 Transfection Kit (Gibco, A14525). After 24 hours, cells were collected, washed, and resuspended in room temperature 0.1% PBS-BSA, adjusted to pH 7.4 using 1 M NaOH. Cells were transferred to white opaque 96-well microplates (100 μl per well, PerkinElmer, 6005290), followed by addition of the Nano-Glo Live Cell Reagent (25 μl per well). Baseline luminescence was measured for 10 cycles (1 cycle = 90 s) before adding compounds. All luminescence measurements were made on BMG Labtech PHERAstar FSX. Data analysis was performed using GraphPad Prism.

T1 sequence (Q8IYL9 whole entry): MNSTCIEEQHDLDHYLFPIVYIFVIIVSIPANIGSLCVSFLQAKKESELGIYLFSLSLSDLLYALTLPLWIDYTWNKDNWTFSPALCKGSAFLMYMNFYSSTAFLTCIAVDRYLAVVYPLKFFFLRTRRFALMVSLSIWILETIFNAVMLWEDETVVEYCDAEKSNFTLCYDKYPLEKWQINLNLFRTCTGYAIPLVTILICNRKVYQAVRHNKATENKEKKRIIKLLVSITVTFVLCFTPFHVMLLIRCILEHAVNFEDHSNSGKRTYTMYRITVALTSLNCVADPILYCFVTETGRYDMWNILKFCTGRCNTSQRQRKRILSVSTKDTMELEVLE
T2 sequence (Q8IYL9 whole entry): as above

Usually EC50 stands for the concentration that produces a half-maximal response. Turning to `Cc1cnc(N)c(C(=O)C2CCN(C(=O)c3cnc(C)nc3C)CC2)c1` [BRD-K07158347-001-02-2], the EC50 in experiment [1] was 17 µM; on hGPR65 it was 18.3 µM. On to `Nc1cccnc1Sc1nc2cccnc2s1` [BRD-K10062067-001-02-9], for which the EC50 (in experiment [1]; at hGPR65) was above 100 µM each time. Consider `Nc1ccc2c(C(F)(F)F)cc(=O)oc2c1` [BRD-K20841137-001-08-7], for which the EC50 (in experiment [1]; on hGPR65) was above 100 µM in each case. Take `COc1cc(Br)c(-c2cc3ccccc3oc2=O)cc1OC` [BRD-K22294093-001-02-2]: the EC50 (in experiment [1]; at hGPR65) was below 10 µM throughout. With `CCN1C[C@@H](COC)[C@]2(CCN(C(=O)N3CCCC3)C2)C1` [BRD-K23021624-001-01-8], the EC50 (in experiment [1]; on hGPR65) was above 100 µM in each case. Take `COC(=O)Nc1nc2ccc(-c3n[nH]c(=O)c4ccccc34)cc2[nH]1` [BRD-K25806464-001-09-6]: the EC50 (in experiment [1]; on hGPR65) was below 10 µM in each case.

Regarding `O=C(c1ccc2nc[nH]c2c1)N1CCC(CCOc2ccccc2)(C(=O)O)CC1` [BRD-K25972060-001-03-7], the EC50 in experiment [1] is 4.9 µM; at hGPR65 it was 4.6 µM.

Take `O=c1c(-c2ccccc2)nnc2sc(-c3ccc4c(c3)OCCO4)nn12` [BRD-K26812102-001-02-6]: the EC50 (in experiment [1]; at hGPR65) was above 100 µM throughout. Take `O=C(c1ccco1)N1CCN(c2ccnc3cc(Cl)ccc23)CC1` [BRD-K27679143-001-08-6]: the half-maximal effective concentration (EC50) is 15.6 µM in experiment [1] and 18.3 µM at hGPR65.

Turning to `Cn1ccc2c(-c3ccc(C(=O)N4CCCC4)cn3)ccnc21` [BRD-K29607656-001-02-7], the EC50 (in experiment [1]; on hGPR65) was above 100 µM throughout.

On to `Cn1ccc2c(-c3cccc(=O)[nH]3)ccnc21` [BRD-K33217544-001-03-3], for which the EC50 amounted to 89.8 µM in experiment [1] and 91.8 µM at hGPR65. For `O=C(CN1CCC(c2ccncc2)CC1)N1CCOCC1` [BRD-K33295678-001-02-9] the same measures were above 100 µM and above 100 µM. Turning to `CCCOc1cc2c(cc1CN(C)Cc1cc(=O)[nH]c3ccccc13)OCO2` [BRD-K37392365-001-02-8], the EC50 (in experiment [1]; on hGPR65) was above 100 µM in each case. As to `N#Cc1cnc(SCc2cc(=O)[nH]c3ccccc23)nc1N` [BRD-K39252032-001-02-5], the EC50 is 67.6 µM in experiment [1] and above 100 µM at hGPR65. For `Cn1c(=O)n(C)c2cc(NC(=O)CSc3ncc(C#N)c(N)n3)ccc21` [BRD-K40764399-001-02-3] the same measures were above 100 µM and above 100 µM. The matching figures for `O=C(O)CCCc1nc(-c2cccnc2)no1` [BRD-K41365409-001-02-6]: 35.7 µM and 41.3 µM. For `COc1ccc(NC(=O)CSc2nc3ccc(C)cc3cc2C#N)cc1` [BRD-K45250069-001-02-7] the same measures were above 100 µM and above 100 µM. For the molecule `O=C(O)C1CCN(c2ncnc3ccccc23)CC1` [BRD-K45393828-001-02-7], the figures for the EC50 (in experiment [1]; at hGPR65) were 39.5 µM and 54.4 µM, respectively. For the molecule `COc1ccc(Nc2nnc(-c3ccc(C(N)=O)cc3)c3ccccc23)cc1` [BRD-K46612369-001-11-5], the EC50 (in experiment [1]; on hGPR65) was above 100 µM throughout. In the case of `c1ccc(-c2cc3ncnc(N4CCSCC4)c3s2)cc1` [BRD-K51028315-001-02-0], the EC50 (in experiment [1]; on hGPR65) was above 100 µM throughout. Take `CCc1cc(CC)c2sc3ccccc3c(=O)c2c1` [BRD-K51520769-001-02-7]: the EC50 (in experiment [1]; at hGPR65) was above 100 µM in each case. Turning to `O=C(O)c1nccnc1C(=O)N1CCCN(c2c(Cl)cncc2Cl)CC1` [BRD-K53955368-001-02-8], the EC50 (in experiment [1]; at hGPR65) was above 100 µM throughout.

On to `NC(=O)C1CCN(C(=O)CN2CCN(c3ccnc4cc(Cl)ccc34)CC2)CC1` [BRD-K56344229-001-02-1], for which the EC50 in experiment [1] turned out to be 12.5 µM; on hGPR65 it was 15.6 µM. The matching figures for `COC(=O)c1cc2c(s1)-c1cc(F)ccc1OC2` [BRD-K56384677-001-09-9]: 94.3 µM and 90 µM. Regarding `CN(Cc1ccc2ncccc2c1)C(=O)[C@@H]1C[C@H](N)CN1C` [BRD-K56675411-001-02-6], the EC50 in experiment [1] came out at 57.3 µM; on hGPR65 it was 70.2 µM. For `Cc1nccn1-c1ccc(CN(Cc2cccnc2)C2CC(C)(C)NC(C)(C)C2)cc1` [BRD-K56921026-001-02-1] the same measures were 50.8 µM and 57 µM. Regarding `O=C(CN1CCC(c2ccncc2)CC1)NCc1cccs1` [BRD-K63268990-001-02-0], the EC50 (in experiment [1]; on hGPR65) was above 100 µM in each case.

As for `O=c1[nH]c2ccccc2c2oc(-c3ccccc3)nc12` [BRD-K66733191-001-02-7], the figures for the EC50 (in experiment [1]; at hGPR65) were 71 µM and 91.2 µM, respectively. The matching figures for `COc1ccc(C(=O)c2cn(CC(=O)Nc3nc4c(s3)CCCC4)c3cnccc23)cc1` [BRD-K74442183-001-02-5]: below 30 µM and below 30 µM. Turning to `O=C(Nc1cccc2nsnc12)c1sc2ccccc2c1Cl` [BRD-K76966415-001-02-1], the EC50 (in experiment [1]; at hGPR65) was below 30 µM throughout.

Consider `O=C(Cn1nnc(-c2ccccc2NC(=O)c2ccccc2)n1)NC1CCCCC1` [BRD-K79778627-001-02-1], for which the EC50 in experiment [1] is 73.7 µM; on hGPR65, above 100 µM.

Consider `Cc1ccc(C(=O)Cn2c(=O)n(C(C)C)c3nc(-c4ccc(F)cc4)nc(C(N)=O)c32)cc1` [BRD-K81805280-001-02-6], for which the EC50 (in experiment [1]; at hGPR65) was above 100 µM each time. Take `Cc1cc2c(cc1-c1cncn1CCN(C)C1CCCC1)n(C)c(=O)n2C` [BRD-K91081402-001-02-5]: the EC50 (in experiment [1]; on hGPR65) was above 100 µM throughout. For `O=C(c1cc2c([nH]c1=O)CCC2)N1CCN(c2ccnc3cc(Cl)ccc23)CC1` [BRD-K91175373-001-02-0], the values for the EC50 (in experiment [1]; at hGPR65) were 16.9 µM and 20.1 µM, respectively. For `Cn1cc(C(=O)c2ccc(F)cc2)c2ccnc(Cl)c21` [BRD-K96864761-001-02-4] the same measures were 44.5 µM and 48.1 µM. For the molecule `CC(C)NCC(O)c1ccc(O)c(O)c1` (centres unmarked) [isoproterenol, reference compound], the “luminescence in hGPR65-SmBiT/LgBiT-mGs cells” value at hGPR65-SmBiT was “did not elicit a change in luminescence”.

The record behind these values is PMC11259170, “Small-molecule probe for IBD risk variant GPR65 I231L alters cytokine signaling networks through positive allosteric modulation” (Science Advances, 2024).
